The source of these data is patent US20230026163A1, “ANTICANCER COMPOUND AND MEDICAL USE THEREOF” (ASCENTAWITS PHARMACEUTICALS, LTD., priority 2019, published 2023).

Data set [1] is described as follows: Hepatomicrosome stability, mouse. The following applies: for Remaining percentage after 30 minutes: Mouse, 2 μM. How it is done: (§1) 1a) With NADPH: 10 μL of 20 mg/mL of hepatomicrosome and 40 μL of 10 mM of NADPH were added to medium. The final concentrations of hepatomicrosome and NADPH were 0.5 mg/mL and 1 mM, respectively.
(§2) 1b) Without NADPH: 10 μL of 20 mg/mL hepatomicrosome and 40 μL of ultra-pure H2O were added to medium. The final concentration of hepatomicrosome was 0.5 mg/mL.
(§3) 3) 3) Aliquots of 50 μL from the reaction solutions at 0 minute and 30 minutes were taken. The reaction solutions were stopped by adding 4 volumes of cold acetonitrile and 4 internal standards (IS internal standard, 100 nM of Alprazolam, 200 nM of caffeine, 200 nM of Labetalol, and 2 μM of Ketoprofen) to stop the reaction solution. The samples were centrifuged at 3,220 g for 40 minutes. Aliquots of 100 μL of the supernatants were mixed with 100 μL of ultra-pure H2O. Then, the mixtures were used for LC-MS/MS analysis. All experiments were performed in duplicate. The test results were as follow.

Another data set in a line: Plasma stability, dog. Format: in vitro ADME. As for the experimental part: Frozen plasma was melted immediately in a water bath at 37° C. […] The supernatants were collected into new tubes, respectively. pH values of the plasma were checked and recorded. Note: a, no more 2 times melted plasma was used since the sample was received; b, the plasma in pH 7 to pH 8 was used.
1 mM of working solution of the test compounds and the control compound, propantheline, were prepared in DMSO. 1 mM of working solution of the control compound in […] was prepared in acetonitrile. 4 μL of the working solutions were added to 796 μL of pre-incubated plasma respectively to achieve a final concentration of 5 μM. The final concentration of solvent was 0.5%.
[…] The test was performed in duplicate. […] 50 μL of the labeled plasma was added to new tubes containing 300 μL of the quench solution of room temperature, i.e., the sample with a preparation time of 0. The samples were vortexed to mix for 5 minutes. […] 100 μL of the supernatant was transferred to new plates.

Data set [2] in a line: Hepatomicrosome stability, dog. As to conditions: for Remaining percentage after 30 minutes: Dog, 2 μM. As for the experimental part: as §1, §2, §3
The next data set concerns H460 cell line. In words: Hypoxia-dependent cytotoxicity experiment (2 hours exposure, air or N2, CTG). Format: cell-based. As to conditions: Homo sapiens, then 3 days. How it is done: To determine the effect of the compounds of the present disclosure on cancer cell proliferation, these compounds were tested for cancer cell anti-proliferative activity in a porous CTG-based assay. Cell growth was compared in the present (treatment groups) and the absence of the test compound. 10,000 cells/well/495 μL of medium was used to test the following cell line, a human tumor cell line of H460 non-small cell lung cancer. The cells were seeded on glass-inserts located in each well of 24-well plates with a density and medium as specified above. 24 hours later, the plates were divided into 2 groups, hypoxia (using N2) group and air group. TH-302 at the concentrations from 100, 10, 0.1 to 0.01 μM, and the test compounds at the concentrations from 10, 1, 0.1, 0.01, 0.001 to 0.0001 were added to each well (500 μL volume) of the treatment groups. The final DMSO concentration in each well was lower than or equal to 1%. The cells in the hypoxia group were incubated for 2 hours in an ELECTROTEK hypoxia workstation. The cells in the air group were incubated for 2 hours in a standard culture incubator. 2 hours later, the test compounds were removed from each well. The cells were washed with 500 μL of medium and incubated in 500 μL of fresh medium for 3 days. 3 days later, 200 μL of medium per well was discarded. 60 μL of CTG was added to the wells, and the plates were placed at room temperature for 15 minutes in the dark. 100 μL of medium from each well of the 24-well plates was transferred to 96-well plates. The chemiluminescence signal values were read with an M5 full-band multi-mode-function microplate reader, and integration=750 ms. The compounds of control 1 and control 2 were used as controls.

Structures are written as SMILES. Where two headings read alike, the source gives them in different places.

Consider `O=[N+]([O-])c1ccc(C(OP(=O)(N2CC2)N2CC2)C(F)(F)F)c2ccccc12` (stereo not shown) [Compound 01], for which the “Remaining percentage after 30 minutes” value in data set [1] (with NADPH) is reported as 102.89%; in data set [1] (without NADPH), 103.07%; in data set [2] (with NADPH), 31.16%; in data set [2] (without NADPH), 101.62%. Further, the results for the “Stability in hepatomicrosomes (conclusion)” value in data set [1] (mice) and in data set [2] (dog) were “relatively stable” and “unstable”, respectively. For the same compound, the Remaining percentage in the data set “Plasma stability, dog” (Dog plasma, 5 μM, 37° C., after 30 minutes) was found to be 85.04%. Further, in the data set “Plasma stability, dog” (dog), the “Stability in plasma (conclusion)” value is “relatively stable”. Besides, the IC50 in the data set with H460 cell line (NCI-H460, H460, air, read-out: Normoxia: IC50) was found to be 331 nM; in the data set with H460 cell line (NCI-H460, H460, hypoxia (N2), read-out: N2: IC50) it was 23.9 nM.
